Measured values published in US6706747B2, “Conformationally rigid bicyclic and adamantane derivatives useful as α2-adrenergic blocking agents” (Allergan, Inc., priority 1994, dated 2004).

Assays:
α1 = assay: Radioligand binding, [3H]prazosin, human cerebral cortex (HCC) membranes; conditions: 22° C., 30 minutes
Protocol: (§1) Tissue preparation: Membrane suspensions were prepared from human cerebral cortex (HCC) obtained from the UCI Organ and Tissue Bank and rat kidney cortex (RKC). Briefly, tissues (1 g) were homogenized in 25 ml of iced-cold 5 mM tris, pH 7.4 with a Polytron homogenizer for 30 secs at setting# 7, and centrifuged for. 10-12 minutes at 300×g at 4° C. The supernatant was filtered: through 2 layers of gauze and diluted 1:2 with 50 mM Tris-HCI buffer, pH 7.4, then centrifuged at 49,000×g for 20 minutes. The pellet fraction was washed 3 times (resuspended in Tris-HCl buffer and centrifuged for 20 minutes at 49,000×g). The pellet was then stored at −80° C. until the binding assay.
Binding studies: The radioligands [^3H]rauwolscine (specific activity 80 Ci/mmol) and [^3H]prazosin (specific activity 76 Ci/mmol) were obtained from New England Nuclear, Boston, Mass. Frozen membrane pellet was resuspended in 25 mM glycine/glycine, pH 7.4 and incubated with radioligand under the following conditions: CHO—C10, CHO—RNG, HT-29-[^3H]rauwolscine, 22° C., 30 minutes; RKC-[^3H]rauwolscine, 0° C., 120 minutes; and, HCC-[^3H]prazosin, 22° C., 30 minutes in a final volume of 500 μl. At the end of the incubation period, the samples were filtered through glass fiber filters (Whatman GF/B) in a 96 well cell harvester and rapidly washed four times with 4 ml of ice-cold 50 mM, Tris-HCl buffer. The filters were then oven dried and transferred to scintillation vials containing 5 ml of Beckman's Ready Protein® scintillation cocktail for counting. […] Protein concentrations were determined with a protein assay kit from Bio Rad. Binding isotherms, equilibrium dissociation and affinity constants were analyzed and determined by the non-linear least squares curve fitting programs AccuFit Competition/Saturation by Beckman.
Frozen membrane pellet was resuspended either 50 mM tris, 2 mM EGTA, 1 mM MgCl2, pH7.5 (RbKC, RbICB-[^3H]brimonidine); 50 mM tris, 0.5 mM EDTA, 5 mM NaCl, pH 7.7 (RbICB-[^3H]rauwolscine); 25 mM glycine/glycine, pH 7.4 (RtKC, CHO—C10, CH—RNG, HT-29, HCC) or 50 mM tris, 0.1 mM MnCl2, pH7.7 (RtCC). Membrane protein homogenate (75-200 μg) was incubated with radioligand under the following conditions: RbKC and RbICB-[^3H]rauwolscine, 22° C., 45 minutes; RtCC and RbICB-[^3H]brimondine, 22° C., 90 minutes; CHO—C10, CHO—RNG and HT-29-[^3H]rauwolscine, 22° C., 30 minutes; HCC—[^3H]prazosin, 22° C., 30 minutes; and, in a final volume of 250 or 500 μl. At the end of the incubation period, the samples were filtered through glass fiber filters (Whatman GF/B) in a 24 or 96 well cell harvester and rapidly washed four times with 4 mls of iced-cold 50 mM Tris-HCl buffer. The filters were then oven dried and transferred to scintillation vials containing 10 mls of, Beckman's Ready Protein® scintillation cocktail for counting. […] Protein concentrations were determined with a protein assay kit from Bio Rad. Binding isotherms, equilibrium dissociation and affinity constants were analyzed and determined by the non-linear least squares curve fitting programs EBDA (BioSoft) or AccuFit Competition/Saturation by Beckman.
The radioligands [^3H]rauwolscine (specific activity 80 Ci/mmol) and [^3H]prazosin (specific activity 76 Ci/mmol) were obtained from New England Nuclear, Boston, Mass. Frozen membrane pellet was resuspended in 25 mM glycine/glycine, pH 7.4 and incubated with radioligand under the following conditions: CHO—C10, CHO—RNG-[^3H]rauwolscine, 22° C., 30 minutes; and, HCC—[^3H]prazosin, 22° C., 30 minutes in a final volume of 500 ul.

Rat Kidney Cortex (α2AB) = target: T1, Rat Kidney Cortex (α2AB) (Rattus norvegicus, UniProt P19328); assay: Radioligand binding, [3H]rauwolscine, rat kidney cortex (RKC) membranes; conditions: values marked †: rat kidney cortex, 0° C., 120 minutes, read-out: Ki (nM) α2B (RKC)†
T1 construct: Membrane suspensions were prepared from human cerebral cortex (HCC) obtained from the UCI Organ and Tissue Bank and rat kidney cortex (RKC); from tissue; host or cells: rat kidney cortex
T1 sequence (P19328 1-453): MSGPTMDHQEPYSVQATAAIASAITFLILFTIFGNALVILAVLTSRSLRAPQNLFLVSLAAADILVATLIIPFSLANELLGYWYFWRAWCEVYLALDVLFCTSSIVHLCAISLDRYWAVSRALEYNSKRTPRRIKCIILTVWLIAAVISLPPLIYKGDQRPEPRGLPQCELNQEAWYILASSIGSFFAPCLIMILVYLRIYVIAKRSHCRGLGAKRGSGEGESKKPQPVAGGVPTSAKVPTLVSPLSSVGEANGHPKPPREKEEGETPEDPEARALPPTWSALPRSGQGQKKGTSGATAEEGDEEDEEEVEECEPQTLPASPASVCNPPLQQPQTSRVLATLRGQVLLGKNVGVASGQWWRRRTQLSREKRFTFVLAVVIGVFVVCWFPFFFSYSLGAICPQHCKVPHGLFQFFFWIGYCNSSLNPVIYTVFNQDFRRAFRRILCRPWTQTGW
Protocol: as §1
Binding studies: The radioligands [^3H]rauwolscine (specific activity 80 Ci/mmol) and [^3H]prazosin (specific activity 76 Ci/mmol) were obtained from New England Nuclear, Boston, Mass. Frozen membrane pellet was resuspended in 25 mM glycine/glycine, pH 7.4 and incubated with radioligand under the following conditions: CHO—C10, CHO—RNG, HT-29-[^3H]rauwolscine, 22° C., 30 minutes; RKC-[^3H]rauwolscine, 0° C., 120 minutes; and, HCC-[^3H]prazosin, 22° C., 30 minutes in a final volume of 500 μl. At the end of the incubation period, the samples were filtered through glass fiber filters (Whatman GF/B) in a 96 well cell harvester and rapidly washed four times with 4 ml of ice-cold 50 mM, Tris-HCl buffer. The filters were then oven dried and transferred to scintillation vials containing 5 ml of Beckman's Ready Protein® scintillation cocktail for counting. Specific binding defined by 10 μM phentolamine for competition studies were as follows: 0.3 nM [^3H]rauwolscine—CHO—C10 99%; 0.4 nM[^3H]rauwolscine —CHO—RNG 99%; 0.7;nM [^3H]rauwolscine—HT-29 90%; 1 nm [^3]rauwolscine—RKC 92%, and 0.3 nM [^3H]prazosin—HCC 87%. Protein concentrations were determined with a protein assay kit from Bio Rad. Binding isotherms, equilibrium dissociation and affinity constants were analyzed and determined by the non-linear least squares curve fitting programs AccuFit Competition/Saturation by Beckman.

SMILES | Ki (α1) [nM] | Ki (Rat Kidney Cortex (α2AB)) [nM]
CCCCNC1=NCCO1 | > 100000 | 317
CC(C)C1C2CCC(C2)C1NC1=NCCO1 (stereo not shown) | > 10000 | 58
CCCCC1C2CCC(C2)C1NC1=NCCO1 (stereo not shown) | 5820 | 59
CCCCC1C2CCC(C2)C1NC1=NCCS1 (stereo not shown) | 42000 | 167
C1CCC(C2C3CCC(C3)C2NC2=NCCN2)CC1 (stereo not shown) | 17200 | 5100
